Source: ChEMBL document CHEMBL3885861, “Open TG-GATES”

Species: Rattus norvegicus
Assay: Open TG-GATES - Regimen: Single
Assay type: toxicity, organism-based, Sprague-Dawley
Set-up: regimen Single, gender Male, age 6 weeks
Conditions: in vivo, iv, route intravenous injection; for APTT / Bas / Eos / Fbg / Hb / Ht / Lym / MCH / MCHC / MCV / Mono / Neu / PT / Plat / RBC / Ret / WBC: tissue Blood; for KIDNEY_L / KIDNEY_R / KIDNEY_TOTAL: tissue Kidney; for LIVER: tissue Liver; for A/G / ALP / ALT / AST / BUN / CRE / Ca / Cl / DBIL / GLC / IP / K / LDH / Na / PL / RALB / TBIL / TC / TG / TP / gamma-GTP: tissue Plasma
[1] = 20 mg/kg, 3 h, dose level Middle
[2] = 20 mg/kg, 6 h, dose level Middle
[3] = 20 mg/kg, 9 h, dose level Middle
[4] = 20 mg/kg, 24 h, dose level Middle
[5] = 60 mg/kg, 24 h, dose level High

## NCCBr [BROMOETHANAMINE]
[1]
  TERMINAL_BW: 213.1 g
  APTT: 23.3 s
  Bas: 0%
  Eos: 0.8%
  Fbg: 304 mg/dL
  Hb: 13.6 g/dL
  Ht: 39.3%
  Lym: 77.8%
  MCH: 21.5 pg
  MCHC: 34.7%
  MCV: 61.9 fL
  Mono: 2.2%
  Neu: 18.8%
  PT: 16.2 s
  Plat: 141.3 x10_4/uL
  RBC: 635 x10_4/ul
  Ret: 5.8%
  WBC: 60.9 x10_2/uL
  KIDNEY_L: 0.9 g
  KIDNEY_R: 0.9 g
  KIDNEY_TOTAL: 1.9 g
  LIVER: 9.4 g
  A/G: 1.2
  ALP: 1554.2 IU/L
  ALT: 41.2 IU/L
  AST: 67.2 IU/L
  BUN: 11.6 mg/dL
  CRE: 0.1 mg/dL
  Ca: 10.8 mg/dL
  Cl: 105 meq/L
  DBIL: 0 mg/dL
  GLC: 189.8 mg/dL
  IP: 9.8 mg/dL
  K: 3.8 meq/L
  LDH: 210 IU/L
  Na: 143.2 meq/L
  PL: 130.8 mg/dL
  RALB: 3.1 g/dL
  TBIL: 0.014 mg/dL
  TC: 79.4 mg/dL
  TG: 50.2 mg/dL
  TP: 5.7 g/dL
  gamma-GTP: 1.6 IU/L
[2]
  TERMINAL_BW: 214.7 g
  APTT: 23.7 s
  Bas: 0%
  Eos: 1%
  Fbg: 308.8 mg/dL
  Hb: 13.5 g/dL
  Ht: 39.4%
  Lym: 74.4%
  MCH: 21.6 pg
  MCHC: 34.3%
  MCV: 63 fL
  Mono: 2.2%
  Neu: 21.4%
  PT: 16.1 s
  Plat: 126.9 x10_4/uL
  RBC: 624.6 x10_4/ul
  Ret: 6.1%
  WBC: 83.3 x10_2/uL
  KIDNEY_L: 1 g
  KIDNEY_R: 1 g
  KIDNEY_TOTAL: 2 g
  LIVER: 8.8 g
  A/G: 1.2
  ALP: 1286 IU/L
  ALT: 34.2 IU/L
  AST: 68.6 IU/L
  BUN: 9.8 mg/dL
  CRE: 0.2 mg/dL
  Ca: 10.5 mg/dL
  Cl: 105.8 meq/L
  DBIL: 0 mg/dL
  GLC: 183.4 mg/dL
  IP: 9.9 mg/dL
  K: 4.2 meq/L
  LDH: 183.2 IU/L
  Na: 142 meq/L
  PL: 117.2 mg/dL
  RALB: 2.9 g/dL
  TBIL: 0.026 mg/dL
  TC: 74.4 mg/dL
  TG: 28.8 mg/dL
  TP: 5.5 g/dL
  gamma-GTP: 1.6 IU/L
[3]
  TERMINAL_BW: 205.7 g
  APTT: 23.8 s
  Bas: 0%
  Eos: 0.6%
  Fbg: 343 mg/dL
  Hb: 13.9 g/dL
  Ht: 40%
  Lym: 74.4%
  MCH: 21 pg
  MCHC: 34.7%
  MCV: 60.5 fL
  Mono: 3%
  Neu: 21.2%
  PT: 15.9 s
  Plat: 121.7 x10_4/uL
  RBC: 662.2 x10_4/ul
  Ret: 5.5%
  WBC: 69.4 x10_2/uL
  KIDNEY_L: 1 g
  KIDNEY_R: 1 g
  KIDNEY_TOTAL: 2 g
  LIVER: 8.4 g
  A/G: 1.1
  ALP: 1380.4 IU/L
  ALT: 32.6 IU/L
  AST: 63 IU/L
  BUN: 12.2 mg/dL
  CRE: 0.2 mg/dL
  Ca: 10.6 mg/dL
  Cl: 105.4 meq/L
  DBIL: 0 mg/dL
  GLC: 187 mg/dL
  IP: 9.4 mg/dL
  K: 3.7 meq/L
  LDH: 170.6 IU/L
  Na: 142.8 meq/L
  PL: 139 mg/dL
  RALB: 3 g/dL
  TBIL: 0.018 mg/dL
  TC: 80.2 mg/dL
  TG: 66.2 mg/dL
  TP: 5.8 g/dL
  gamma-GTP: 1.2 IU/L
[4]
  TERMINAL_BW: 213.8 g
  APTT: 22.4 s
  Bas: 0%
  Eos: 0.8%
  Fbg: 384.6 mg/dL
  Hb: 13.9 g/dL
  Ht: 40.7%
  Lym: 80.8%
  MCH: 21.1 pg
  MCHC: 34%
  MCV: 61.9 fL
  Mono: 2.6%
  Neu: 15%
  PT: 16.4 s
  Plat: 123.2 x10_4/uL
  RBC: 659.2 x10_4/ul
  Ret: 4.9%
  WBC: 85.8 x10_2/uL
  KIDNEY_L: 1 g
  KIDNEY_R: 1 g
  KIDNEY_TOTAL: 2 g
  LIVER: 9.5 g
  A/G: 1.1
  ALP: 1544 IU/L
  ALT: 41.8 IU/L
  AST: 69.8 IU/L
  BUN: 25.6 mg/dL
  CRE: 0.2 mg/dL
  Ca: 11 mg/dL
  Cl: 105.6 meq/L
  DBIL: 0.002 mg/dL
  GLC: 190.4 mg/dL
  IP: 6.7 mg/dL
  K: 4.2 meq/L
  LDH: 200.8 IU/L
  Na: 142.8 meq/L
  PL: 152.2 mg/dL
  RALB: 3 g/dL
  TBIL: 0.012 mg/dL
  TC: 89.6 mg/dL
  TG: 89 mg/dL
  TP: 5.7 g/dL
  gamma-GTP: 2.2 IU/L
60 mg/kg, 3 h, dose level High
  TERMINAL_BW: 212.4 g
  APTT: 23.5 s
  Bas: 0%
  Eos: 0.6%
  Fbg: 312.8 mg/dL
  Hb: 14.4 g/dL
  Ht: 41.9%
  Lym: 70.8%
  MCH: 21.8 pg
  MCHC: 34.5%
  MCV: 63.3 fL
  Mono: 2.4%
  Neu: 25.4%
  PT: 16.1 s
  Plat: 131.5 x10_4/uL
  RBC: 661.2 x10_4/ul
  Ret: 6%
  WBC: 39.6 x10_2/uL
  KIDNEY_L: 0.9 g
  KIDNEY_R: 1 g
  KIDNEY_TOTAL: 1.9 g
  LIVER: 9.3 g
  A/G: 1.2
  ALP: 1494.4 IU/L
  ALT: 47 IU/L
  AST: 56.8 IU/L
  BUN: 13.4 mg/dL
  CRE: 0.1 mg/dL
  Ca: 10.7 mg/dL
  Cl: 106.8 meq/L
  DBIL: 0.002 mg/dL
  GLC: 166.2 mg/dL
  IP: 10.5 mg/dL
  K: 4.1 meq/L
  LDH: 321.8 IU/L
  Na: 143.4 meq/L
  PL: 141 mg/dL
  RALB: 3.1 g/dL
  TBIL: 0.014 mg/dL
  TC: 85.4 mg/dL
  TG: 46.4 mg/dL
  TP: 5.9 g/dL
  gamma-GTP: 1 IU/L
60 mg/kg, 6 h, dose level High
  TERMINAL_BW: 208.7 g
  APTT: 23.1 s
  Bas: 0%
  Eos: 0.6%
  Fbg: 325.6 mg/dL
  Hb: 14.2 g/dL
  Ht: 40.9%
  Lym: 74.2%
  MCH: 20.9 pg
  MCHC: 34.8%
  MCV: 60.1 fL
  Mono: 1.6%
  Neu: 23.2%
  PT: 16.1 s
  Plat: 136 x10_4/uL
  RBC: 681 x10_4/ul
  Ret: 5.4%
  WBC: 35.9 x10_2/uL
  KIDNEY_L: 1 g
  KIDNEY_R: 1 g
  KIDNEY_TOTAL: 2 g
  LIVER: 9.1 g
  A/G: 1.2
  ALP: 1401.4 IU/L
  ALT: 39.2 IU/L
  AST: 54.2 IU/L
  BUN: 15.6 mg/dL
  CRE: 0.1 mg/dL
  Ca: 10.6 mg/dL
  Cl: 101.4 meq/L
  DBIL: 0.004 mg/dL
  GLC: 201 mg/dL
  IP: 10.2 mg/dL
  K: 4 meq/L
  LDH: 362.4 IU/L
  Na: 142 meq/L
  PL: 133 mg/dL
  RALB: 3.2 g/dL
  TBIL: 0.01 mg/dL
  TC: 80.8 mg/dL
  TG: 27.6 mg/dL
  TP: 6 g/dL
  gamma-GTP: 1.2 IU/L
60 mg/kg, 9 h, dose level High
  TERMINAL_BW: 202.6 g
  APTT: 24.1 s
  Bas: 0%
  Eos: 0.2%
  Fbg: 341.6 mg/dL
  Hb: 14.9 g/dL
  Ht: 42.6%
  Lym: 71%
  MCH: 21.5 pg
  MCHC: 35%
  MCV: 61.4 fL
  Mono: 3.2%
  Neu: 24.2%
  PT: 15.8 s
  Plat: 135.3 x10_4/uL
  RBC: 695 x10_4/ul
  Ret: 5.2%
  WBC: 40.1 x10_2/uL
  KIDNEY_L: 1 g
  KIDNEY_R: 1 g
  KIDNEY_TOTAL: 2 g
  LIVER: 8.8 g
  A/G: 1.2
  ALP: 1484.2 IU/L
  ALT: 34.4 IU/L
  AST: 49.6 IU/L
  BUN: 19.8 mg/dL
  CRE: 0.2 mg/dL
  Ca: 10.7 mg/dL
  Cl: 101.4 meq/L
  DBIL: 0 mg/dL
  GLC: 223.8 mg/dL
  IP: 9.1 mg/dL
  K: 3.6 meq/L
  LDH: 316.2 IU/L
  Na: 142 meq/L
  PL: 154.6 mg/dL
  RALB: 3.4 g/dL
  TBIL: 0.016 mg/dL
  TC: 86.8 mg/dL
  TG: 84.2 mg/dL
  TP: 6.2 g/dL
  gamma-GTP: 1.4 IU/L
[5]
  TERMINAL_BW: 206.5 g
  APTT: 24.1 s
  Bas: 0%
  Eos: 0.6%
  Fbg: 354.4 mg/dL
  Hb: 14.6 g/dL
  Ht: 42.3%
  Lym: 81.6%
  MCH: 21 pg
  MCHC: 34.6%
  MCV: 60.9 fL
  Mono: 2.6%
  Neu: 13.8%
  PT: 16.1 s
  Plat: 130.9 x10_4/uL
  RBC: 695 x10_4/ul
  Ret: 4%
  WBC: 90.8 x10_2/uL
  KIDNEY_L: 1 g
  KIDNEY_R: 1 g
  KIDNEY_TOTAL: 1.9 g
  LIVER: 8.1 g
  A/G: 1.2
  ALP: 1421.6 IU/L
  ALT: 35.4 IU/L
  AST: 61.4 IU/L
  BUN: 18.4 mg/dL
  CRE: 0.2 mg/dL
  Ca: 10.7 mg/dL
  Cl: 109.4 meq/L
  DBIL: 0.004 mg/dL
  GLC: 174 mg/dL
  IP: 7.9 mg/dL
  K: 4.2 meq/L
  LDH: 278.8 IU/L
  Na: 142.8 meq/L
  PL: 141.4 mg/dL
  RALB: 3.1 g/dL
  TBIL: 0.028 mg/dL
  TC: 91.4 mg/dL
  TG: 36.4 mg/dL
  TP: 5.8 g/dL
  gamma-GTP: 1.6 IU/L
